From the supplement of paper PMC10307832

Experiments:
Experiment in all cases: relative viability (nuclei count vs DMSO), 5 days (fraction); higher = more cells survive
EPLC-272H = tested on: EPLC-272H
In short: (§1)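 Cells from lung cancer lines were seeded into 1536-well plates and, one day later, dosed by pin tool. Treatments were either a single drug or a fixed dose of an anchor drug with five library-drug doses (not always all listed) in √10 steps. After 5 days, nuclei were stained in a one-step fixation (final 0.05% Triton X-100, 1% formaldehyde, 1 ug/ml Hoechst) and counted on 4× images, and relative viability is the treated-to-vehicle nuclei ratio, as the median of duplicate plates.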

PC-14 = tested on: PC-14
In short: as §1

HOP-62 = tested on: HOP-62
In short: as §1

NCI-H1915 = tested on: NCI-H1915
In short: as §1

NCI-H2347 = tested on: NCI-H2347
In short: as §1

NCI-H1355 = tested on: NCI-H1355
In short: as §1

LU99A = tested on: LU99A
In short: as §1

LC-2-ad = tested on: LC-2-ad
In short: as §1

UMC-11 = tested on: UMC-11
In short: as §1

NCI-H2085 = tested on: NCI-H2085
In short: as §1

NCI-H1651 = tested on: NCI-H1651
In short: as §1

NCI-H1993 = tested on: NCI-H1993
In short: as §1

HARA = tested on: HARA
In short: as §1

COR-L23 = tested on: COR-L23
In short: as §1

NCI-H838 = tested on: NCI-H838
In short: as §1

HCC-44 = tested on: HCC-44
In short: as §1

SW 1573 = tested on: SW 1573
In short: as §1

HCC-15 = tested on: HCC-15
In short: as §1

NCI-H2023 = tested on: NCI-H2023
In short: as §1

NCI-H2126 = tested on: NCI-H2126
In short: as §1

O=c1cc(-c2cccc3c2Sc2ccccc2S3)oc(N2CCOCC2)c1 + CC1(C)CCC(c2ccc(Cl)cc2)=C(CN2CCN(c3ccc(C(=O)NS(=O)(=O)c4ccc(N[C@H](CCN5CCOCC5)CSc5ccccc5)c(S(=O)(=O)C(F)(F)F)c4)cc3)CC2)C1 [Navitoclax] (partner 0.5 µM)
relative viability (EPLC-272H; first compound 0.08 µM): 1.09 | relative viability (EPLC-272H; first compound 0.253 µM): 1.17 | relative viability (EPLC-272H; first compound 0.8 µM): 1.17 | relative viability (EPLC-272H; first compound 2.53 µM): 1.09 | relative viability (EPLC-272H; first compound 8 µM): 1.2 | relative viability (PC-14; first compound 0.08 µM): 1.04 | relative viability (PC-14; first compound 0.253 µM): 1.31 | relative viability (PC-14; first compound 0.8 µM): 1.01 | relative viability (PC-14; first compound 2.53 µM): 0.946 | relative viability (PC-14; first compound 8 µM): 1.05 | relative viability (HOP-62; first compound 0.08 µM): 1.09 | relative viability (HOP-62; first compound 0.253 µM): 1.43 | relative viability (HOP-62; first compound 0.8 µM): 1.21 | relative viability (HOP-62; first compound 2.53 µM): 0.902 | relative viability (HOP-62; first compound 8 µM): 1.28 | relative viability (NCI-H1915; first compound 0.08 µM): 0.776 | relative viability (NCI-H1915; first compound 0.253 µM): 0.847 | relative viability (NCI-H1915; first compound 0.8 µM): 0.795 | relative viability (NCI-H1915; first compound 2.53 µM): 0.787 | relative viability (NCI-H1915; first compound 8 µM): 0.872 | relative viability (NCI-H2347; first compound 0.08 µM): 0.855 | relative viability (NCI-H2347; first compound 0.253 µM): 1.08 | relative viability (NCI-H2347; first compound 0.8 µM): 0.799 | relative viability (NCI-H2347; first compound 2.53 µM): 0.839 | relative viability (NCI-H2347; first compound 8 µM): 0.969 | relative viability (NCI-H1355; first compound 0.08 µM): 0.982 | relative viability (NCI-H1355; first compound 0.253 µM): 1.06 | relative viability (NCI-H1355; first compound 0.8 µM): 0.847 | relative viability (NCI-H1355; first compound 2.53 µM): 0.942 | relative viability (NCI-H1355; first compound 8 µM): 0.685 | relative viability (LU99A; first compound 0.08 µM): 0.809 | relative viability (LU99A; first compound 0.253 µM): 0.918 | relative viability (LU99A; first compound 0.8 µM): 0.84 | relative viability (LU99A; first compound 2.53 µM): 0.786 | relative viability (LU99A; first compound 8 µM): 0.958 | relative viability (LC-2-ad; first compound 0.08 µM): 0.363 | relative viability (LC-2-ad; first compound 0.253 µM): 0.666 | relative viability (LC-2-ad; first compound 0.8 µM): 0.375 | relative viability (LC-2-ad; first compound 2.53 µM): 0.421 | relative viability (LC-2-ad; first compound 8 µM): 0.403 | relative viability (UMC-11; first compound 0.08 µM): 0.326 | relative viability (UMC-11; first compound 0.253 µM): 0.319 | relative viability (UMC-11; first compound 0.8 µM): 0.32 | relative viability (UMC-11; first compound 2.53 µM): 0.304 | relative viability (UMC-11; first compound 8 µM): 0.353 | relative viability (NCI-H2085; first compound 0.08 µM): 1.15 | relative viability (NCI-H2085; first compound 0.253 µM): 1.31 | relative viability (NCI-H2085; first compound 0.8 µM): 1.17 | relative viability (NCI-H2085; first compound 2.53 µM): 1.05 | relative viability (NCI-H2085; first compound 8 µM): 1.07 | relative viability (NCI-H1651; first compound 0.08 µM): 1.04 | relative viability (NCI-H1651; first compound 0.253 µM): 1.42 | relative viability (NCI-H1651; first compound 0.8 µM): 0.852 | relative viability (NCI-H1651; first compound 2.53 µM): 0.994 | relative viability (NCI-H1651; first compound 8 µM): 1.14 | relative viability (NCI-H1993; first compound 0.08 µM): 1.09 | relative viability (NCI-H1993; first compound 0.253 µM): 0.989 | relative viability (NCI-H1993; first compound 0.8 µM): 0.768 | relative viability (NCI-H1993; first compound 2.53 µM): 0.824 | relative viability (NCI-H1993; first compound 8 µM): 0.871 | relative viability (HARA; first compound 0.08 µM): 1.16 | relative viability (HARA; first compound 0.253 µM): 1.36 | relative viability (HARA; first compound 0.8 µM): 1.01 | relative viability (HARA; first compound 2.53 µM): 1.11 | relative viability (HARA; first compound 8 µM): 1.2 | relative viability (COR-L23; first compound 0.08 µM): 1.26 | relative viability (COR-L23; first compound 0.253 µM): 1.4 | relative viability (COR-L23; first compound 0.8 µM): 1.07 | relative viability (COR-L23; first compound 2.53 µM): 1.2 | relative viability (COR-L23; first compound 8 µM): 1.47 | relative viability (NCI-H838; first compound 0.08 µM): 1.11 | relative viability (NCI-H838; first compound 0.253 µM): 1.64 | relative viability (NCI-H838; first compound 0.8 µM): 0.944 | relative viability (NCI-H838; first compound 2.53 µM): 1.02 | relative viability (NCI-H838; first compound 8 µM): 1.09 | relative viability (HCC-44; first compound 0.08 µM): 0.916 | relative viability (HCC-44; first compound 0.253 µM): 1.2 | relative viability (HCC-44; first compound 0.8 µM): 0.859 | relative viability (HCC-44; first compound 2.53 µM): 0.96 | relative viability (HCC-44; first compound 8 µM): 0.905 | relative viability (SW 1573; first compound 0.08 µM): 0.999 | relative viability (SW 1573; first compound 0.253 µM): 1.14 | relative viability (SW 1573; first compound 0.8 µM): 1.04 | relative viability (SW 1573; first compound 2.53 µM): 1.12 | relative viability (SW 1573; first compound 8 µM): 1.17 | relative viability (HCC-15; first compound 0.08 µM): 0.68 | relative viability (HCC-15; first compound 0.253 µM): 0.866 | relative viability (HCC-15; first compound 0.8 µM): 0.615 | relative viability (HCC-15; first compound 2.53 µM): 0.66 | relative viability (HCC-15; first compound 8 µM): 0.705 | relative viability (NCI-H2023; first compound 0.08 µM): 1.04 | relative viability (NCI-H2023; first compound 0.253 µM): 1.12 | relative viability (NCI-H2023; first compound 0.8 µM): 1.04 | relative viability (NCI-H2023; first compound 2.53 µM): 0.943 | relative viability (NCI-H2023; first compound 8 µM): 1.02 | relative viability (NCI-H2126; first compound 0.08 µM): 0.808 | relative viability (NCI-H2126; first compound 0.253 µM): 0.974 | relative viability (NCI-H2126; first compound 0.8 µM): 0.8 | relative viability (NCI-H2126; first compound 2.53 µM): 0.826 | relative viability (NCI-H2126; first compound 8 µM): 0.849
